# Where a SMILES comes first, the peptide text is derived from it. Bridges are numbered along the chain shown (N, C = ends). [ ]: non-standard residue; d: D form. The star is where a group is joined. Hexanoyl(6-Ph) = O=C(CCCCCc1ccccc1)*; dDab = NCC[C@@H](N)C(=O)O; Octanoyl = CCCCCCCC(=O)*; Dab = NCC[C@H](N)C(=O)O
# Experiments:
# S. aureus ATCC 25923 = assay: microbe, parasite or virus in culture
# In short: (§1)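 Compounds are diluted in broth, the strain is added, and the lowest concentration that inhibits growth is taken as the MIC (mg/L).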
# E. coli ATCC 25922 = assay: microbe, parasite or virus in culture
# In short: as §1
# K. pneumoniae ATCC 13833 = assay: microbe, parasite or virus in culture
# In short: as §1
# A. baumannii ATCC 19606 = assay: microbe, parasite or virus in culture
# In short: as §1
# [1] = tested on: K. pneumoniae ATCC 700603; assay: microbe, parasite or virus in culture
# In short: as §1
# P. aeruginosa ATTC 27853 = assay: microbe, parasite or virus in culture
# In short: as §1
# K. pneumoniae BAA 2146 = assay: microbe, parasite or virus in culture
# In short: as §1
# [2] = tested on: ATCC reference strains (Escherichia coli, Klebsiella pneumoniae, A. baumannii, and P. aeruginosa)
# Protocol: All compounds synthesised in this study were assessed for their minimum inhibitory concentrations (MIC, mg/L) by broth microdilution assay against five antibiotic-sensitive and resistant ATCC reference strains covering the Gram-negative ESKAPE pathogens (Escherichia coli, Klebsiella pneumoniae, A. baumannii, and P. aeruginosa) (Table 1, Table 2 and Table 3). Staphylococcus aureus was also included as a representative Gram-positive bacterial strain. […] Polymyxin B 1, colistin 2, vancomycin and gentamicin were used as positive inhibitor comparator compounds. Compounds were counter-screened against human proximal tubular epithelial cells (HK-2), using LDH release as a general indicator of cellular toxicity.
# in vitro = conditions: human
# In short: (§2)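 HK-2 cells seeded 2000 cells/well in DMEM/F12 with 10% FBS, grown 24 h, then exposed to compounds (300 µM to 2.3 µM, 2-fold series; colistin/polymyxin B 1 mM to 7.8 µM) for 24 h at 37 °C. LDH in medium read at 450 nm after 30 min; cytotoxicity % relative to 1% Triton X-100 and untreated cells.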
# [3] = tested on: P. aeruginosa FADDI PA070; assay: microbe, parasite or virus in culture
# In short: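 Broth microdilution; read-out = minimum inhibitory concentration, mg/L. Comparators: polymyxin B, colistin, vancomycin, gentamicin.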
# [4] = tested on: human proximal tubular epithelial cells (HK-2); assay: Cytotoxicity, LDH release assay in HK-2 cells
# In short: as §2
# [5] = Gram-positive strain, broth microdilution, 18 h
# [6] = Pmx-resistant clinical isolate, broth microdilution, 18 h
# [7] = broth microdilution, 18 h, 37 °C
# [8] = ESBL strain, broth microdilution, 18 h
# [9] = NDM-1 positive strain, broth microdilution, 18 h
Compound,"MIC S. aureus ATCC 25923 (S. aureus ATCC 25923; ATCC 25923, 18 h)","MIC E. coli ATCC 25922 (E. coli ATCC 25922; ATCC 25922, 18 h)","MIC K. pneumoniae ATCC 13833 (K. pneumoniae ATCC 13833; ATCC 13833, 18 h)","MIC A. baumannii ATCC 19606 (A. baumannii ATCC 19606; ATCC 19606, 18 h)","MIC K. pneumoniae ATCC 700603 ([1]; ATCC 700603, 18 h)","MIC P. aeruginosa ATTC 27853 (P. aeruginosa ATTC 27853; ATTC 27853, 18 h)","MIC K. pneumoniae BAA 2146 (K. pneumoniae BAA 2146; BAA 2146, 18 h)",CC50 at 24 h (in vitro),MIC S. aureus ATCC 25923 (S. aureus ATCC 25923; [5]),"MIC P. aeruginosa FADDI PA070 [3, 6]",MIC E. coli ATCC 25922 (E. coli ATCC 25922; [7]),"MIC K. pneumoniae ATCC 13833 (K. pneumoniae ATCC 13833; broth microdilution, 18 h)","MIC A. baumannii ATCC 19606 (A. baumannii ATCC 19606; broth microdilution, 18 h)","MIC K. pneumoniae ATCC 700603 [1, 8]","MIC P. aeruginosa ATTC 27853 (P. aeruginosa ATTC 27853; broth microdilution, 18 h)",MIC K. pneumoniae BAA 2146 (K. pneumoniae BAA 2146; [9]),also measured
CCCCCCCC(=O)N[C@H](C(=O)N[C@@H](CCN)C(=O)N[C@@H]1CCNC(=O)[C@H]([C@@H](C)O)NC(=O)[C@H](CCN)NC(=O)[C@H](CCN)NC(=O)[C@H](CC(C)C)NC(=O)[C@@H](Cc2ccccc2)NC(=O)[C@H](CCN)NC1=O)[C@@H](C)O [Compound 19] (Octanoyl-T[Dab][dDab][Dab][dF]L[Dab][Dab]T; lactam 3-C),>32 µg/mL,>32 µg/mL,>32 µg/mL,>32 µg/mL,>32 µg/mL,>32 µg/mL,>32 µg/mL,> 300 µM,,,,,,,,,MIC for all strains [2]: > 32 µg/mL
"polymyxin B [PmxB 1, reference compound]",,,,,,,,,>32 µg/mL,32 µg/mL,1 µg/mL,1 µg/mL,0.25 µg/mL,0.5 µg/mL,0.5 µg/mL,0.25 µg/mL,"CC50 ([4]; read-out: CC50 HK-2, LDH release, 24 h incubation): > 300 µM"
CCCCCCCC(=O)N[C@H](C(=O)N[C@@H](CO)C(=O)N[C@H]1CCNC(=O)[C@H]([C@@H](C)O)NC(=O)[C@H](CCN)NC(=O)[C@H](CCN)NC(=O)[C@H](CC(C)C)NC(=O)[C@@H](Cc2ccccc2)NC(=O)[C@H](CCN)NC1=O)[C@@H](C)O [Compound 35] (Octanoyl-TS[Dab][Dab][dF]L[Dab][Dab]T; lactam 3-C),>32 µg/mL,,>32 µg/mL,>32 µg/mL,32 µg/mL,16 µg/mL,16 µg/mL,220 µM,,,,,,,,,MIC for most strains [2]: 16 to 32 µg/mL
CC(C)C[C@@H]1NC(=O)[C@@H](Cc2ccccc2)NC(=O)[C@H](CCN)NC(=O)[C@@H](NC(=O)[C@@H](CCN)NC(=O)[C@@H](NC(=O)CCCCCc2ccccc2)[C@@H](C)O)CCNC(=O)[C@H]([C@@H](C)O)NC(=O)[C@H](CCN)NC(=O)[C@H](CCN)NC1=O [Compound 25] ({Hexanoyl(6-Ph)}-T[dDab][Dab][Dab][dF]L[Dab][Dab]T; lactam 3-C),>32 µg/mL,0.5 µg/mL,4 µg/mL,2 µg/mL,1 µg/mL,2 µg/mL,0.5 µg/mL,> 300 µM,,,,,,,,,"MIC P. aeruginosa FADDI PA070 ([3]; FADDI PA070, 18 h): 8 µg/mL; MIC against the ATCC strains [2]: 0.5 to 4 µg/mL"
"colistin [Col 2, reference compound]",,,,,,,,,>32 µg/mL,>32 µg/mL,0.25 µg/mL,0.25 µg/mL,0.25 µg/mL,0.25 µg/mL,0.5 µg/mL,0.25 µg/mL,CC50 [4]: > 300 µM
